Laboratory results published in ChEMBL document CHEMBL1201862, “PubChem BioAssay data set” (2004).
Activity calls are given as the source filed them.

Legend:
[1] = microbe, parasite or virus in culture; format: functional; details: Mycobacterium tuberculosis
[2] = molecular target: Luciferin 4-monooxygenase (Photinus pyralis, UniProt P08659); assay: firefly luciferase enzyme inhibitors, dose response, biochemical, luminescence (AID 1891)
[3] = Luminescence Cell-Based Dose Confirmation HTS to Identify Inhibitors of Platelet Dense Granule Release. [Related pubchem assays: 1663 (Primary HTS), 1678 (Summary of Project)]; format: functional
[4] = inhibitors of intracellular T. cruzi replication, confirmation, NIH3T3 host cells, beta-gal luminescence (AID 2044); format: functional, cell-based;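 also: intracellular parasites grown in NIH/3T3 mouse fibroblasts as host cells; luminescent beta-galactosidase reporter signal from transgenic T. cruzi replicating inside host cells; inhibitors lower the luminescence signal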
[5] = cytotoxicity toward NIH3T3 fibroblasts, dose response, counter-screen, cell-based, ATP luminescence, mouse fibroblasts (AID 2010); format: functional;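 also: cells exposed to compound for about 90 hours before reading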
[6] = molecular target: T1, Calpain-2 catalytic subunit (Sus scrofa, UniProt P43367); assay: pig calpain II inhibitor potency, dose response, biochemical, fluorogenic peptide substrate (AID 1420); format: functional
T1 sequence (P43367 whole entry): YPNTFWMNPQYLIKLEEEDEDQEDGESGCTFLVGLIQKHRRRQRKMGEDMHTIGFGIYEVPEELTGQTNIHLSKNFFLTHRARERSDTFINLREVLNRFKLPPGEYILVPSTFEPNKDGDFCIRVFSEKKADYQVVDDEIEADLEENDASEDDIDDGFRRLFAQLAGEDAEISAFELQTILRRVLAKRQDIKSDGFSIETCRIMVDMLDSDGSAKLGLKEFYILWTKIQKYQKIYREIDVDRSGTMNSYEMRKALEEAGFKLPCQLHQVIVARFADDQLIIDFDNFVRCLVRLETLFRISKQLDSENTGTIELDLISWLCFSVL

[7] = molecular target: Cytochrome P450 2C19 (Homo sapiens, UniProt P33261); assay: Cytochrome panel assay with activity outcomes. Panel member name: p450-cyp2c19 Compounds with AC50 equal or less than 10 uM are considered active; format: functional
[8] = cells; format: functional
[9] = molecular target: T2, Heat shock factor protein 1 (Mus musculus, UniProt P38532); assay: HSF1 potentiators in luciferase reporter cells, confirmation, cell-based, NIH3T3, luminescence, dose retest (AID 435004); format: functional;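 also: stress induced by proteasome inhibitor MG132 added 30 min after compound; luciferase reporter driven by HSF1 response element in NIH3T3 cells; actives raise luminescence as potentiators of the MG132 stress response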
T2 sequence (P38532 whole entry): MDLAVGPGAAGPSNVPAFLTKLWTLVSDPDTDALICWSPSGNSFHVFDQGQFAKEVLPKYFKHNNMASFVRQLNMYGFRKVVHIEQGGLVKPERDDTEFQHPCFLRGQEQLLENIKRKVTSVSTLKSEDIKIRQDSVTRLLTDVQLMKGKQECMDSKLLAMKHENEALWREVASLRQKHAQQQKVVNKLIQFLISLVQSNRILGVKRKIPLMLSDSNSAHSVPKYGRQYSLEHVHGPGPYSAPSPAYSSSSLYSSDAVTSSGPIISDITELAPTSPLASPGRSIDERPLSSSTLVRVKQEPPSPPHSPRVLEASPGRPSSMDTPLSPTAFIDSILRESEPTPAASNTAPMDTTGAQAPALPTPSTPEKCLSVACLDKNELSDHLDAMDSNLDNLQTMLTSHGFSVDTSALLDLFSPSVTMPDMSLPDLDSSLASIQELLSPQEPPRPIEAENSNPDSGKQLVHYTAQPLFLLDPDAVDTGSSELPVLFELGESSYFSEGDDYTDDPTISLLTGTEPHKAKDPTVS

[10] = molecular target: T2, Heat shock factor protein 1; assay: inhibition of MG132-induced HSE-luciferase signal, confirmation, cell-based, NIH3T3, luminescence, dose retest (AID 2382); format: functional;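 also: NIH3T3 fibroblasts with HSF1-driven luciferase reporter stressed by proteasome inhibitor MG132; luminescence from HSF1-driven luciferase expression after 8 hours of MG132 stress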
[11] = molecular target: T3, Corticotropin-releasing factor receptor 2/Corticotropin-releasing factor-binding protein (Homo sapiens, UniProt P24387+Q13324); assay: Dose Response confirmation of uHTS hits for small molecule antagonists of the CRF-binding protein and CRF-R2 receptor complex.; format: functional; details: read-out: IC50_Mean
T3 sequence (Q13324 whole entry): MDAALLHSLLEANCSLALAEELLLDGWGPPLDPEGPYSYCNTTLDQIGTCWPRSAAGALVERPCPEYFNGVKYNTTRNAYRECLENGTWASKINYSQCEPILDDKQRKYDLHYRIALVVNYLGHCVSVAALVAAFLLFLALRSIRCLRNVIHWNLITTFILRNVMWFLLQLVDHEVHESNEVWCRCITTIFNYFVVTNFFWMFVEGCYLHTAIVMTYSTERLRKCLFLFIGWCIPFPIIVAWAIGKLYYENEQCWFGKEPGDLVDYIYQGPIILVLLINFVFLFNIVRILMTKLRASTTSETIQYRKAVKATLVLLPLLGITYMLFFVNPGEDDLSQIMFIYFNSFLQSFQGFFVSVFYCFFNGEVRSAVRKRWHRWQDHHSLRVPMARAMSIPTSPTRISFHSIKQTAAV
T3 sequence (P24387 whole entry): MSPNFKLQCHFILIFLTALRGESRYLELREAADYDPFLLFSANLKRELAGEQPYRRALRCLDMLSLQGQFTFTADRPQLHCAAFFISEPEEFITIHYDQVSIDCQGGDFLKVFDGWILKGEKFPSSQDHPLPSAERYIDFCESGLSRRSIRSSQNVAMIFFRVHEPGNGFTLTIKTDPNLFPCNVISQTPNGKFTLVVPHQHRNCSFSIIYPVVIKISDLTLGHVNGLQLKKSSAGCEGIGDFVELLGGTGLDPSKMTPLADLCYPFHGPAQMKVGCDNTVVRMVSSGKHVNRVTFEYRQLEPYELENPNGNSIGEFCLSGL

[12] = molecular target: T3, Corticotropin-releasing factor receptor 2/Corticotropin-releasing factor-binding protein; assay: activators of CRF receptor 2 with binding protein – uHTS hits, confirmation (AID 602473); format: functional; details: read-out: EC50_Mean
[13] = Luminescence Cell-Based Dose Response HTS to Identify Activators of Luciferase Translation or Activity in H4 […] Cells. [Related pubchem assays: 1829 (Project Summary), 1814 (Primary HTS)]; format: functional
[14] = Luminescence Cell-Based Dose Confirmation HTS to Identify Activators of 5'UTR Stem-Loop Driven Alpha-Synuclein mRNA Translation in H4 Neuroglioblastoma Cells. [Related pubchem assays: 1829 (Project Summary), 1814 (Primary HTS)]; format: functional
[15] = system: H4; assay: Luminescence Cell-Based Dose Response HTS to Identify Activators of 5'UTR Stem-Loop Driven Prion Protein mRNA Translation in H4 Neuroglioblastoma Cells. [Related pubchem assays: 1829 (Project Summary), 1814 (Primary HTS)]; format: functional; details: Homo sapiens

Luciferin 4-monooxygenase, sequence (P08659 whole entry): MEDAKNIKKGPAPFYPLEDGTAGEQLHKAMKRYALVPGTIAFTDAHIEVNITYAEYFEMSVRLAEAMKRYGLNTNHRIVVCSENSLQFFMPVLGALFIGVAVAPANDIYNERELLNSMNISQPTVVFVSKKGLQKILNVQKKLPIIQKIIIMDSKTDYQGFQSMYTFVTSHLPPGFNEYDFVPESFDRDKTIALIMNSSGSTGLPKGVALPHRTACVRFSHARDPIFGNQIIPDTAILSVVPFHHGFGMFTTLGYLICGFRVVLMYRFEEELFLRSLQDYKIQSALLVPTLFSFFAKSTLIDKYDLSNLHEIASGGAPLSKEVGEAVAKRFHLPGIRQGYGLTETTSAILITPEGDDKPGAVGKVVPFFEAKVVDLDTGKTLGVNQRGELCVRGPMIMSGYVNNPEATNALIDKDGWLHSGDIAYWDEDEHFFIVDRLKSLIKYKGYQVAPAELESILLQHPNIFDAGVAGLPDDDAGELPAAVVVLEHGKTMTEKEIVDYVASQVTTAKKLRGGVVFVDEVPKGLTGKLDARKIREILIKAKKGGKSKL
Cytochrome P450 2C19, sequence (P33261 whole entry): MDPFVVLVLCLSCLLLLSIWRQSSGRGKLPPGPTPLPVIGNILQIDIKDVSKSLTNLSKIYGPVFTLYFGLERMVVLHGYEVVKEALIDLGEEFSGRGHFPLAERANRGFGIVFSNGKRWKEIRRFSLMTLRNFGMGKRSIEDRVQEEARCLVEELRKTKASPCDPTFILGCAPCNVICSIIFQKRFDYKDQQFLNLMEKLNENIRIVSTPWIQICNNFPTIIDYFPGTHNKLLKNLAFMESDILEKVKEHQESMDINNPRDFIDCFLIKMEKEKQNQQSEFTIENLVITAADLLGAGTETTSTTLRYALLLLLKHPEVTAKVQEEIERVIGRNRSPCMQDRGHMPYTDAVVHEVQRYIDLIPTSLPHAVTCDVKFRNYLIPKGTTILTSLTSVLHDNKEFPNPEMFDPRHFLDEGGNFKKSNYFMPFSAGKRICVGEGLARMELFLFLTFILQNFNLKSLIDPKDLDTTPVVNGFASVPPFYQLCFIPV

CCc1cc(C(=O)NNC(=O)CCl)sc1C
CC50 [1]: 23.8 µM (active)

Cc1cccc(NC(=O)CN2CCC(C(=O)c3ccc4c(c3)OCCO4)CC2)c1
EC50 [2]: > 112 µM (not active)
EC50 [3]: > 112 µM (not active)

C=CCN(C(=O)CSc1nc2c(sc3ccccc32)c(=O)n1CCN(CC)CC)c1ccccc1
EC50 [4]: 0.606 µM (active)
EC50 [5]: 11 µM (active)
CC50 [1]: 31.9 µM (active)

COc1ccc(/C=C/C(=O)NC(=S)Nc2cc3oc4ccccc4c3cc2OC)cc1
IC50 [6]: > 50 µM (not active)

COC(=O)COc1ccc2c(-c3cccc([N+](=O)[O-])c3)cc(=O)oc2c1
AC50 [7]: 0.251 µM (inconclusive)
IC50 [8]: 2.9 µM (active)

COc1cc2cnc(-c3ccccc3)c(-c3ccc(C(F)(F)F)cc3)c2cc1OC
CC50 [1]: > 40 µM (active)

CCOC(=O)c1c(COc2ccccc2)oc2ccc(O)cc12
EC50 [9]: > 260 µM (inactive)

COc1cc(OC)nc(Oc2ccccc2C(=O)Oc2ccc(Cl)cc2)n1
EC50 [10]: > 195 µM (not active)
CC50 [1]: > 40 µM (active)

Cc1ccccc1Nc1nc(N)nc(CSc2ccccc2)n1
EC50 [9]: 19.1 µM (active)

C(=N\c1nc2ccccc2[nH]1)/c1cccs1
EC50 [2]: 16.2 µM (active)
EC50 [3]: > 112 µM (not active)

COc1ccc(CN(CCc2c[nH]c3ccccc23)Cc2ccc(OC)cc2)cc1
IC50 [11]: > 47.1 µM (inactive)
EC50 [12]: > 53 µM (inactive)

COc1ccccc1N1CCN(CC(=O)Nc2c(C)n[nH]c2C)CC1
IC50 [11]: > 47.1 µM (inactive)
EC50 [12]: > 53 µM (inactive)

COc1ccc(CC(=O)Nc2cccc(-c3cn4ccccc4n3)c2)cc1
EC50 [2]: > 112 µM (not active)
EC50 [3]: > 112 µM (not active)

O=C(Cn1cc(C(=O)c2ccco2)c2ccccc21)Nc1ccccc1
IC50 [6]: 3.26 µM (not active)

CCSc1nnc(NC(=O)Cc2cccc(OC)c2)s1
IC50 [6]: 2.28 µM (not active)

COc1ccc(C2=NN(C(=O)CSC3=NN4CCCC(=O)N=C4S3)C(c3cccc(OC)c3OC)C2)cc1 (configuration not stated)
EC50 [2]: > 112 µM (not active)
EC50 [3]: > 112 µM (not active)

CSC(=S)N/N=C/c1ccccc1
CC50 [1]: > 40 µM (active)

CSc1nc2sc(-c3ccccc3)cc2c(=O)n1N
EC50 [2]: 0.191 µM (active)
EC50 [3]: < 0.701 µM (active)

Cc1nc(NC(=O)c2ccccc2)sc1C1(C)CC(c2ccc(OC(F)(F)F)cc2)=NO1 (configuration not stated)
CC50 [1]: > 40 µM (active)

C=CCn1c(COc2ccc(CC)cc2)nnc1SC/C(O)=C(\C#N)c1nc2ccccc2[nH]1
EC50 [9]: > 260 µM (inactive)

NC(=S)N/N=C/c1coc2c(ccc3ccccc32)c1=O
IC50 [6]: 24.6 µM (not active)

COC(=O)/C=c1/s/c(=C(\C#N)C(=O)NCc2ccco2)n(-c2ccccc2)c1=O
IC50 [11]: > 47.1 µM (inactive)
EC50 [12]: > 53 µM (inactive)

Cc1ccc(CNC(=O)CSc2ccsc2[N+](=O)[O-])cc1
EC50 [9]: 31.5 µM (active)

O=C1CCC(C(=O)Nc2ccccc2N2CCOCC2)=NN1
IC50 [11]: > 47.1 µM (inactive)
EC50 [12]: > 53 µM (inactive)

Nc1c(C(=O)OCC2CCCO2)c2nc3ccccc3nc2n1C1CCCC1 (configuration not stated)
CC50 [1]: 38.3 µM (active)

Cc1c(NC(=O)c2c(N)n(-c3ccccc3)c3nc4ccccc4nc23)c(=O)n(-c2ccccc2)n1C
EC50 [2]: > 112 µM (not active)
EC50 [3]: > 112 µM (not active)

COc1ccc(Cc2nnc(NC(=O)c3c(-c4ccccc4)noc3C)s2)cc1
EC50 [2]: > 112 µM (not active)
EC50 [3]: > 112 µM (not active)

CCCc1cc(-c2nnc(S)n2Cc2ccccc2)cs1
IC50 [6]: 22.1 µM (not active)

CCN(CC)c1nc(NN)nc(Nc2ccc(C)c(Cl)c2)n1
CC50 [1]: 31.8 µM (active)

CCOC(=O)N1CCN(C(=O)Cn2cnc3ccccc3c2=O)CC1
IC50 [11]: > 47.1 µM (inactive)
EC50 [12]: > 53 µM (inactive)

O=C(NCc1cccs1)c1ccc(C[S+]([O-])Cc2cccc(Cl)c2)o1 (configuration not stated)
IC50 [11]: > 47.1 µM (inactive)
EC50 [12]: > 53 µM (inactive)

CCCC1CC(C)(c2csc(Nc3ccc(OCC)cc3)n2)OC1=O (configuration not stated)
CC50 [1]: > 40 µM (active)

CCN(CC)c1ccc(/C=N\NC(=O)c2cccc3cc[nH]c23)cc1
IC50 [11]: > 47.1 µM (inactive)
EC50 [12]: > 53 µM (inactive)

CC1(C)Cc2c(sc3[nH]c(=O)n(CC(=O)NCC4CCCO4)c(=O)c23)CO1 (configuration not stated)
IC50 [11]: > 47.1 µM (inactive)
EC50 [12]: > 53 µM (inactive)

Cc1ccc(C(=O)NCCCNc2ccccc2[N+](=O)[O-])cc1
IC50 [6]: 25.2 µM (not active)

O=C(Nc1nccs1)C1CCN(S(=O)(=O)c2ccc(Cl)c(C(F)(F)F)c2)CC1
EC50 [2]: > 112 µM (not active)
EC50 [3]: > 112 µM (not active)

Oc1ccc(N=Nc2n[nH]c(-c3ccc(Cl)cc3)n2)cc1
EC50 [13]: 8.25 µM (active)
EC50 [14]: > 120 µM (not active)
EC50 [15]: > 120 µM (not active)
CC50 [1]: 28.1 µM (active)

NS(=O)(=O)c1ccc(NC(=O)COC(=O)C23CC4CC(CC(C4)C2)C3)cc1
IC50 [6]: 3.33 µM (not active)

COc1ccc(C(=N)NOC(=O)Cc2ccccc2[N+](=O)[O-])cc1
IC50 [6]: 10.1 µM (not active)

Cc1ccc(C)n1-c1ccc(C(=O)NN=C2CCCC2)cc1
EC50 [2]: > 112 µM (not active)
EC50 [3]: > 112 µM (not active)

CCOC(=O)Cn1/c(=N/C(=O)CSC(C)=O)sc2ccccc21
EC50 [2]: > 112 µM (not active)
EC50 [3]: > 112 µM (not active)

CC(=O)c1cccc(NC(=O)c2c(F)c(F)c(F)c(F)c2F)c1
IC50 [6]: 17.2 µM (not active)
